The values that follow come from publication PMC11521937, “Expression and characterization of pantothenate energy‐coupling factor transporters as an anti‐infective drug target” (Protein Science : A Publication of the Protein Society, 2024).

In experiment [1] the test system is Streptococcus pneumoniae DSM‐20566. Put plainly: bacterial growth assay (MIC), S. pneumoniae DSM‐20566. The experiment is classed as cell-based.
The next experiment addresses ECF‐PanT (Streptococcus pneumoniae, UniProt A0A0H2ZPG6+A0ACD7PRR9+Q04HV7+Q97N51). Put plainly: SPR binding to immobilized ECF‐PanT. The conditions noted are these: for Kd: SPR, S. pneumoniae ECF‐PanT, n = 2; for kon: pH 7.5, read-out: k a; for koff: pH 7.5, read-out: k d. The method, then:
The ECF‐PanT, ECF‐module, and ECF‐FolT2, each bearing a histidine tag, were immobilized on a high‐affinity poly‐nitrilotriacetic acid (poly‐NTA) sensor chip, which was initially activated using NiCl2.
Additionally, the protein was maintained in the buffer containing 5% (v/v) DMSO. For a more in‐depth description of the procedures, please refer to Appendix S1.
(§1) Surface plasmon resonance (SPR)
The SPR binding studies were performed using a Reichert 4SPR surface plasmon resonance spectrometer (Reichert Technologies, Buffalo, NY, USA), and medium–density NTA derivatized polycarboxylate hydrogel NiHC200M sensor chips (XanTec Bioanalytics, Düsseldorf, Germany). The experimental procedure involved two rounds of nickel activation and one immobilization step at a […]
standard protocol as provided by Xantec bioanalytics with a slight modification based on the recombinant proteins. The flow-cell 4 was left blank to serve as a reference.
(§2) The immobilization buffer employed for the immobilization process consisted of 10 mM HEPES with a pH of 7.5, 50 mM NaCl, 50 µM EDTA, and 0.05% DDM without DMSO. Following the immobilization step, for the binding study of the compounds, the running buffer was exchanged for the mentioned buffer with 5% v/v DMSO. This was done to ensure consistency in the percentage of DMSO present in the solutions containing the respective testing inhibitors, as these inhibitors were soluble in the DMSO solvent. By maintaining the same DMSO concentration, we aimed to minimize any potential solvent-related effects on the assay results. All running buffers were filtered and degassed before use.
(§3) The system was initially primed with 5 mM NiCl2 with an association and dissociation time of 2 min for each to activate the NTA sensor chip. Then, the recombinant proteins with a concentration of 200 nM were injected at a flow rate of 10 µL/min for 8 min. Finally, the baseline check with the running […]
First, the calibration curve for correction of the DMSO effect was prepared; the concentrations were […]
concentration of DMSO in all the samples was set to 5% v/v DMSO. The samples (200 µL) were loaded on a 96-well plate and were injected at a flow rate of 50 μL/min. Single-cycle kinetics were applied for KD determination. The association time was set to 60 s, and the dissociation phase was recorded for 120 s. For surface regeneration, 0.35 M EDTA (pH 8.5) and 0.1 M NaOH were used. Data processing and […]
were calculated by sequential subtractions of the corresponding curves obtained from the reference flow cell and the running buffer (blank). SPR responses were expressed in the resonance unit (RU). The KD values were calculated by global fitting of the kinetic curves as well as fitting of the steady state binding responses to a 1:1 Langmuir interaction model.
The SPR experiments were conducted at least two times, representing independent replicates. The […]
interactions, are presented in Figure S12 for ECF-PanT, Figure S13 for ECF-FolT2, and Figure S14 for […]

A further experiment deals with ECF‐module (EcfTAA′) (Streptococcus pneumoniae, UniProt A0A0H2ZPG6+Q04HV7+Q97N51). Kind of experiment: SPR binding to immobilized ECF‐module.
ECF‐module (EcfTAA′), sequence (Q04HV7 whole entry): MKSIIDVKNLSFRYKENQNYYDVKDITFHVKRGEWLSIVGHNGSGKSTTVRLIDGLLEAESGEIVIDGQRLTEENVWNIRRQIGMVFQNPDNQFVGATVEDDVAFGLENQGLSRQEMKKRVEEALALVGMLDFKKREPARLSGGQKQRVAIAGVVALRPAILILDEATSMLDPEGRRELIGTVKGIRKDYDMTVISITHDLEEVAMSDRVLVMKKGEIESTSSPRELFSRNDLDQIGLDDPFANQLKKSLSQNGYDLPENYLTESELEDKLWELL
ECF‐module (EcfTAA′), sequence (Q97N51 whole entry): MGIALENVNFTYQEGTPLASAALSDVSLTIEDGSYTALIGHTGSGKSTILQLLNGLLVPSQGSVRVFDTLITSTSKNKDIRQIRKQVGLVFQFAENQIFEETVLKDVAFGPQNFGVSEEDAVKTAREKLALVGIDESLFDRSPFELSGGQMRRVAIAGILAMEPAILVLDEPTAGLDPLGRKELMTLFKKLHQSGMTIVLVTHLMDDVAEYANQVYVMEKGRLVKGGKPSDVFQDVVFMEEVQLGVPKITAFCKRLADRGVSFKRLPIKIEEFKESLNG
ECF‐module (EcfTAA′), sequence (A0A0H2ZPG6 entry or part of it): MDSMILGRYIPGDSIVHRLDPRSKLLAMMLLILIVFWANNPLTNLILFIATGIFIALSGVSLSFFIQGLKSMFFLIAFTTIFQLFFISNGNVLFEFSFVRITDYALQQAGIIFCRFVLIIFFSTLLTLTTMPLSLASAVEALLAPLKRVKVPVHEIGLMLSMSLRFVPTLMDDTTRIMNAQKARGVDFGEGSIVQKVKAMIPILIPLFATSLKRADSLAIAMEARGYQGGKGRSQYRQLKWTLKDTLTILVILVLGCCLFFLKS
Source text: After identifying the optimal buffer and assessing the stability of the ECF transporter proteins, we proceeded to determine the binding affinity (K d) of small‐molecule inhibitors using SPR. This label‐free technique allows for the investigation of protein–ligand interactions in real time and requires protein immobilization (GE Healthcare Life Science, [2012]). […] The ECF‐PanT, ECF‐module, and ECF‐FolT2, each bearing a histidine tag, were immobilized on a high‐affinity poly‐nitrilotriacetic acid (poly‐NTA) sensor chip, which was initially activated using NiCl2. The His‐tagged proteins were then injected over the Ni^2+‐activated surface to strongly bind to the metal (Knecht et al., [2009]). The immobilization resonance unit (RU) levels were 12,000–15,000 for ECF‐PanT, 9000–12,000 for the ECF‐module, and 6000–9000 for ECF‐FolT2.
In this assay, we used HEPES buffer (10 mM HEPES, 50 mM NaCl, 50 μM EDTA, 0.05% (v/v) DDM, and a pH value of 7.5) as recommended by Xantec Bioanalytics, with a slight modification made to create a more favorable environment for the ECF proteins, enabling their stability to be maintained throughout the assay. Additionally, the protein was maintained in the buffer containing 5% (v/v) DMSO. For a more in‐depth description of the procedures, please refer to Appendix S1.
as §1
The SPR binding studies were performed using a Reichert 4SPR surface plasmon resonance spectrometer (Reichert Technologies, Buffalo, NY, USA), and medium–density NTA derivatized polycarboxylate hydrogel NiHC200M sensor chips (XanTec Bioanalytics, Düsseldorf, Germany). The experimental procedure involved two rounds of nickel activation and one immobilization step at a concentration of 200 nM. The proteins ECF-module (92,56146 kDa), ECF-PanT (113,8745 kDa), and ECF-FolT2 (112,16316 kDa) were immobilized in flow cells 1, 2, and 3, respectively according to the standard protocol as provided by Xantec bioanalytics with a slight modification based on the recombinant proteins. The flow-cell 4 was left blank to serve as a reference.
as §2, §3
the ECF-module, ECF-PanT, and ECF-FolT2, respectively.
First, the calibration curve for correction of the DMSO effect was prepared; the concentrations were 3%, 3.5% 4%, 4.5%, 5%, 5.5%, 6%, 6.5%, and 7% v/v and were diluted with SPR buffer. Then, the […]
concentration of DMSO in all the samples was set to 5% v/v DMSO. The samples (200 µL) were loaded on a 96-well plate and were injected at a flow rate of 50 μL/min. Single-cycle kinetics were applied for KD determination. The association time was set to 60 s, and the dissociation phase was recorded for 120 s. For surface regeneration, 0.35 M EDTA (pH 8.5) and 0.1 M NaOH were used. Data processing and analysis were performed by Scrubber software (Version 2.0c, 2008, BioLogic Software). Sensorgrams were calculated by sequential subtractions of the corresponding curves obtained from the reference flow cell and the running buffer (blank). SPR responses were expressed in the resonance unit (RU). The KD […]
(SPR reads the build-up and loss of mass on a sensor chip optically.)

The mark [2] stands for this setting: Equilibrium, K D, steady state fit.
Where [3] appears, read: Kinetic, K D, global fit of kinetic curves.
[4] abbreviates: global fit of kinetic curves, read-out: Kinetic, K D.
[5] abbreviates: steady state fit, read-out: Equilibrium, K D.

≈ marks a conversion by molar mass, not a printed value. Read-outs that look alike come from different tables or passages of the source. A value given as a limit tells only on which side of the number the result lay.

Consider `O=C(O)c1cc(OCc2cccc3ccccc23)ccc1O` [Compound 1], for which inhibition of growth in experiment [1] (MIC) required 128 µM (≈ 37.7 µg/mL). For the same compound, the Kd at ECF‐PanT (setting [2]) is 277 ± 5 µM; on ECF‐PanT (setting [3]), 276 ± 4 µM; at ECF‐module (EcfTAA′) it was over 200 µM.
The compound `O=C(O)c1cc(OCc2ccc(Br)c3ccccc23)ccc1O` [Compound 2] had an MIC in experiment [1] of 8 µM (≈ 2.99 µg/mL). In addition, the Kd at ECF‐PanT (setting [2]) was 170 ± 5 µM; on ECF‐PanT (setting [3]), 172 ± 2 µM; at ECF‐module (EcfTAA′), over 200 µM.
In experiment [1], `CC(C)(C)OC(=O)Nc1ccc(OCc2cccc3ccccc23)cc1C(=O)O` [Compound 3] displayed an MIC of 16 µM (≈ 6.3 µg/mL). In addition, the Kd was 96 ± 8 µM on ECF‐PanT (setting [2]), 99 ± 1 µM on ECF‐PanT (setting [3]) and over 200 µM on ECF‐module (EcfTAA′). The kon on ECF‐PanT was 650 ± 9 M⁻¹ s⁻¹. In addition, the koff on ECF‐PanT turned out to be 0.0643 ± 0.0006 s⁻¹.
As to `O=C(O)c1cccc(NCc2ccc(-c3ccc(Cl)cc3)o2)c1` [Compound 4], the minimal inhibitory concentration (MIC) in experiment [1] stood at 64 µM (≈ 21 µg/mL). Further, the Kd is 317 ± 3 µM on ECF‐PanT (setting [4]), 304 ± 6 µM at ECF‐PanT (setting [5]) and over 200 µM at ECF‐module (EcfTAA′). In addition, the kon on ECF‐PanT worked out at 399 ± 4 M⁻¹ s⁻¹. For the same compound, the koff on ECF‐PanT turned out to be 0.127 ± 0.001 s⁻¹.
`O=C(O)c1cccc(NCc2ccc(-c3cccc(Cl)c3)o2)c1` [Compound 5] had an MIC in experiment [1] of 128 µM (≈ 42 µg/mL). In addition, the Kd was 451 ± 8 µM on ECF‐PanT (setting [4]), 420 ± 10 µM on ECF‐PanT (setting [5]) and over 200 µM at ECF‐module (EcfTAA′). Moreover, the kon at ECF‐PanT stood at 348 ± 7 M⁻¹ s⁻¹. In addition, the koff on ECF‐PanT came to 0.157 ± 0.002 s⁻¹.
Consider `O=C(O)c1cccc(NCc2ccc(-c3ccccc3Cl)o2)c1` [Compound 6], for which, in experiment [1], the MIC worked out at 128 µM (≈ 42 µg/mL). For the same compound, the Kd is 391 ± 6 µM at ECF‐PanT (setting [4]), 374 ± 6 µM on ECF‐PanT (setting [5]) and over 200 µM at ECF‐module (EcfTAA′). On ECF‐PanT, the kon is 376 ± 6 M⁻¹ s⁻¹. Further, on ECF‐PanT, the koff worked out at 0.147 ± 0.002 s⁻¹.

As a reminder, the MIC is the smallest concentration in the dilution series that meets the test's criterion for growth inhibition. Higher therefore signals a need for much substance.
